# Test results as given in patent publication US9248202B2, “Two-photon probe for detecting copper(II) ion and quantitative estimation of copper(II) ion in human tissue using the same” (Korea University Research and Business Foundation, priority 2014, dated 2016).
# Columns and labels:
# [1] = Absorption and fluorescence spectra, quantum yield, energy transfer; type: physicochemical; settings: for φ (fluorescence quantum yield): uncertainty ± 15%; for λmax^abs: one-photon absorption; for λmax^t1: one-photon emission
# Protocol: Absorption spectra were recorded using the Hewlett-Packard 8453 diode array spectrophotometer and fluorescence spectra were measured using the Amico-Bowman series 2 luminescence spectrometer a 1 cm standard quartz cell. The fluorescence quantum yield was determined using coumarin 307 and rhodamine B as references according to the literature method (J. N. Demas, G. A. Crosby, J. Phys. Chem. 1971, 75, 991).
# (hereinafter, ‘ACCu2’), a compound of [Chemical Formula 12] (hereinafter, ‘FL’) and a compound of [Chemical Formula 13] (hereinafter, ‘IR’) in 1,4-dioxane, DMF, ethanol, EtOH/HEPES (9:1) and HEPES buffer ([HEPES]=20 mM, pH 7.0). Excitation wavelength was 420 nm. The solubility of ACCu2 in HEPES buffer ([HEPES]=20 mM, pH 7.0) as determined by the fluorescence method described in the literature (Kim, H. M.; Choo, H. J.; Jung, S. Y.; Ko, Y. G.; Park, W. H.; Jeon, S. J.; Kim, C. H.; Joo, T. H.; Cho, B. R. Chem Bio Chem 2007, 8, 553) was 8.0 μM, which was sufficient to stain cells.
# To assess the origin of the spectral changes, the energy transfer efficiency (ETE) was calculated using Equation (1). The ETE was 93.4%.
# In Equation (1), AIR and AIR′ are the absorbances of the IR moiety and IR, respectively, and FIR and FIR′ are the emission intensities of the IR moiety and IR, respectively, upon excitation at 373 nm.
# The antenna effect in the one-photon (OP) (or TP) mode was 3.0 (or 3.1). The antenna effect was calculated by dividing the area of emission from the FL moiety upon excitation of the IR moiety at 373 nm (or 750 nm in the TP mode) by that collected from the direct excitation of FL at 461 nm (or 880 nm in the […]).
# HeLa cells = test: Cell viability, CCK-8 kit; type: cell-based, human; settings: various ACCu2 concentrations
# Protocol: HeLa human cervical carcinoma cells were acquired from the ATCC (Manassas, Va., USA). The cells were cultured in DMEM (WelGene, Inc., Seoul, Korea) supplemented with heat-inactivated 10% FBS (WelGene), penicillin (100 units/mL) and streptomycin ([…]), All the cell lines were maintained in a humidified atmosphere of 5% CO2 and 95% air at 37° C. Two days before imaging, the cells were moved and plated onto glass-bottomed dishes (MatTek), For labeling, the growth medium was removed and replaced with FBS-free DMEM. The cells were incubated with 3 μM ACCu2 for 20 minutes at 37° C., washed 3 times with FBS-free DMEM and imaged.
# The viability of HeLa cells with the ACCu2 concentration was measured under the incubation condition using the CCK-8 kit (Cell Counting Kit-8, Dojindo, Japan) (FIG. 7). […] Accordingly, it can be seen that the copper(II) ion concentration in living cells can be measured with minimum interference from cytotoxicity.
# [2] = one-photon, excitation 373 nm, EtOH/HEPES (9:1, pH 7.0)
compound,measurement,setting,value
COCCOCCOCCOc1ccc2c(ccc3cc(C(=O)N4CCN(C(=O)c5ccc(CNC(=O)c6cc7cc8ccc(N(C)C)cc8cc7oc6=O)nc5)CC4)c(=O)oc32)c1 [ACCu2],φ (fluorescence quantum yield),"[1]; 1,4-Dioxane (0.164)",0.75
same,red shift in the emission spectra with solvent polarity,"[1]; 1,4-dioxane to H2O",69 nm
same,φ (fluorescence quantum yield),[1]; DMF (0.386),0.54
same,φ (fluorescence quantum yield),[1]; EtOH (0.654),0.34
same,φ (fluorescence quantum yield),[1]; EtOH/HEPES (9:1),0.22
same,energy transfer efficiency (ETE),"[1]; FRET from IR to FL moiety, excitation at 373 nm, Equation (1)",93.4%
same,φ (fluorescence quantum yield),"[1]; HEPES buffer 20 mM, pH 7.0",0.0028
same,antenna effect,"[1]; TP mode, 750 nm vs direct excitation 880 nm",3.1
same,antenna effect,"[1]; one-photon (OP) mode, 373 nm vs direct excitation 461 nm",3.0
same,λmax^abs,"[1]; 1,4-Dioxane (0.164)",380/437
same,λmax^abs,[1]; DMF (0.386),371/456
same,λmax^abs,[1]; EtOH (0.654),379/460
same,λmax^abs,[1]; EtOH/HEPES (9:1),379/465
same,λmax^abs,"[1]; HEPES buffer 20 mM, pH 7.0",380/453
same,λmax^t1,"[1]; 1,4-Dioxane (0.164)",533 nm
same,λmax^t1,[1]; DMF (0.386),577 nm
same,λmax^t1,[1]; EtOH (0.654),578 nm
same,λmax^t1,[1]; EtOH/HEPES (9:1),585 nm
same,λmax^t1,"[1]; HEPES buffer 20 mM, pH 7.0",602 nm
same,decrease of area of blue emission (400-450 nm) from that of IR,[1]; [2],9.2 fold
same,increase of area of red emission (550-650 nm) from that of FL,[1]; [2],3.4 fold
same,decrease of blue emission,[1]; two-photon (TP) mode,13 fold
same,increase of red emission,[1]; two-photon (TP) mode,3.1 fold
same,viability of HeLa cells,HeLa cells,did not affect the viability of HeLa cells
